Experimental data from patent US20100196365A1, “USE OF IMIDAZOQUINOLINES FOR THE TREATMENT OF EGFR DEPENDENT DISEASES OR DISEASES THAT HAVE ACQUIRED RESISTANCE TO AGENTS THAT TARGET EGFR FAMILY MEMBERS” (priority 2007, published 2010).

How the values were obtained:
NCI-H1975 cell line = experiment: proliferation assay in EGFR inhibitor resistant NCI-H1975 cell line; type: cell-based; details: Homo sapiens; NCI-H1975 cell line (HER1 T790M)
[1] = tested on: panel of breast tumor cell lines; experiment: antiproliferative activity in a panel of breast cancer cell lines (Methylene blue viable cell detection assay); type: cell-based, human
Protocol: The indicated cell lines are incubated with increasing amount of Compound A, and effect on the proliferation assessed with a Methylene blue viable cell detection assay. The cell lines indicated with a red asterisk are the ones in which cell death is observed (i.e. for which the absorbance observed for treated cells was lower than the original inoculum).
(§1) ErB-B2 (HER2) is often overexpressed in breast and ovarian cell lines.

NCI-H358 cell line = experiment: proliferation assay (methylene blue assay) with NCI-H358 tumor cells; type: cell-based; details: Homo sapiens, read-out: Growth Inhibitory 50 (GI50)
BT474 tumors = experiment: antitumor activity against s.c. BT474 xenografts; type: in vivo, mice; details: BT474 subcutaneous xenografts, 45 mg/kg, po, once per day (FIG. 6)
From the text: as §1

NCI-H1975 tumors = details: for in vivo effect on tumor growth: s.c. NCI-H1975 tumors, athymic mice, p.o. (FIG. 3)
Protocol: Non small cell lung carcinoma cell lines with amplified EGFR, but refractory to EGFR inhibition therapy, are valuable models to test the sensitivity of PI3K inhibitors like the compounds of formula I in such genetic background. […] The in vivo antitumor activity of PI3K inhibitors like the compounds of formula I is tested against this EGFR driven and inhibitor resistant tumor model (FIG. 3).

Compound	GI50 (NCI-H1975 cell line)	GI50 ([1]; Homo sapiens, panel of breast tumor cell lines containing or not ErbB2 amplification, read-out: median GI50)	cell death ([1]; cell lines that overexpressed ErbB2 (FIG. 5))	GI50 (NCI-H358 cell line)	in vivo antitumor effect (BT474 tumors)	tolerability (body weight, control vs treatment groups) (NCI-H1975 tumors; mouse, in vivo)	in vivo effect on tumor growth (NCI-H1975 tumors)
Cn1c(=O)n(-c2ccc(C(C)(C)C#N)cc2)c2c3cc(-c4cnc5ccccc5c4)ccc3ncc21 [Compound A, 2-methyl-2-[4-(3-methyl-2-oxo-8-quinolin-3-yl-2,3-dihydro-imidazo[4,5-c]quinolin-1-yl)-phenyl]-propionitrile]	11.4 nM	11.1 nM	induces cell death	31 nM	tumor regression	well tolerated	causes in vivo tumor growth inhibition
CCN1CCN(Cc2ccc(-c3cc4c(N[C@H](C)c5ccccc5)ncnc4[nH]3)cc2)CC1 [NVP-AEE788, reference compound]							no significant inhibition on tumor growth
C#Cc1cccc(Nc2ncnc3cc(OCCOC)c(OCCOC)cc23)c1 [erlotinib, reference compound]							no significant inhibition on tumor growth
